BindingDB's records for patent US20250074895 (Blueprint Medicines, 2025)

Assays:
[1] = biological target: Cyclin-dependent kinase/G2/mitotic-specific cyclin- 1 (Homo sapiens, UniProt P06493); experiment: Biochemical CDK Inhibition Assay
Description: (§1) nhibitory effects of the compounds of the disclosure were measured in biochemical assays that measure the enzymatic phosphorylation activity of CDK enzyme in complex of Cyclin proteins phosphorylates 7.5 micromolar fluorescently labelled peptide substrate, 5-FAM-QSPKKG-CONH2, (FL-Peptide 18, Perkin Elmer, 760362) in the presence of adenosine-5′-triphosphate (ATP) and varying concentrations of the test compound in 100 mM 2-[4-(2-hydroxyethyl)piperazin-1-yl]ethanesulfonic acid (HEPES), pH 7.5, 10 mM MgCl2, 0.015% Brij-35, 1 mM dithiothreitol (DTT), 1.0% dimethylsulfoxide (DMSO). Assays were performed at 1.0 mM ATP or at ATP Km of the CDK enzymes in complex with Cyclin proteins. Reactions proceeded until between 10% to 20% total peptides were phosphorylated at room temperature (25° C.) and were terminated with 35 mM 2,2′,2″,2′″-(ethane-1,2-diyldinitrilo)tetraacetic acid (EDTA). Product was detected using the Caliper mobility shift detection method where the phosphorylated peptide (product) and substrate were electrophoretically separated and measured. Percent activity was plotted against log concentration of compound and points to generate an apparent IC50. The following CDK enzymes in complex with different cyclin proteins were used in these assays:CDK1/Cyclin B1, GST-tag (BPS, 40454), 1.5 nM used in the assayCDK2/Cyclin E (Eurofins, 14-475), 1.25 nM used in the assays

[2] = biological target: Cyclin-dependent kinase 2/G1/S-specific cyclin-E1 (Homo sapiens, UniProt P24941); experiment: Biochemical CDK Inhibition Assay
Description: as §1

Sequence of Cyclin-dependent kinase/G2/mitotic-specific cyclin- 1 (P06493 whole entry): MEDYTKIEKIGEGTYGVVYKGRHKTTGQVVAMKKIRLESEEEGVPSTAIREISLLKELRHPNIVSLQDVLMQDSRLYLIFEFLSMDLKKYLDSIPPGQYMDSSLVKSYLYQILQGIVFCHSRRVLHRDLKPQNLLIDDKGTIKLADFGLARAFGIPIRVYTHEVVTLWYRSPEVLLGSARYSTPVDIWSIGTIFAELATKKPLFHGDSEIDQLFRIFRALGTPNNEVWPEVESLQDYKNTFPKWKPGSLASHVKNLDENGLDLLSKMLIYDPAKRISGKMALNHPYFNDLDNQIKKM
Sequence of Cyclin-dependent kinase/G2/mitotic-specific cyclin- 1 (P14635 whole entry, further chain): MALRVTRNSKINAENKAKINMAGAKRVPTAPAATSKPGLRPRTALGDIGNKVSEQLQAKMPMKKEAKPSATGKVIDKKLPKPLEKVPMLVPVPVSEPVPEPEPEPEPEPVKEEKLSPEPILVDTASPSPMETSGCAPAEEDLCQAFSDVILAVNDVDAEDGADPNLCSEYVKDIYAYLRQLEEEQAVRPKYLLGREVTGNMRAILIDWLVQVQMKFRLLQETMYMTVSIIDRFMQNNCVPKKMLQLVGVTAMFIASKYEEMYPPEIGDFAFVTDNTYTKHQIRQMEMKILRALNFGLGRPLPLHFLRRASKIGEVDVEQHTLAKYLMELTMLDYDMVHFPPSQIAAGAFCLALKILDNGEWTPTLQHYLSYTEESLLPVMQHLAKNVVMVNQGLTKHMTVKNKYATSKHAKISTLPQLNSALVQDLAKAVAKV

| IC50 [1] [nM] | IC50 [2] [nM] | Compound |
| --- | --- | --- |
| < 100 | < 10 | CC1(C)CCN1C(=O)O[C@@H]1CC[C@H](c2cc(Nc3cnc(CO)cn3)n[nH]2)C1 [US20250074895, Compound 49] |
| 300 | < 10 | COCc1cnc(Nc2cc([C@H]3CC[C@@H](OC(=O)NC4(C)CC4)C3)[nH]n2)cn1 [US20250074895, Compound 37] |
| > 500 | < 10 | Cc1nc(C#N)cnc1Nc1cc([C@H]2CC[C@@H](OC(=O)NC3(C)CC3)C2)[nH]n1 [US20250074895, Compound 4] |
| 300 | < 10 | COc1nccc(Nc2cc([C@H]3CC[C@@H](OC(=O)NC4(C)CC4)C3)[nH]n2)n1 [US20250074895, Compound 25] |
| > 500 | < 10 | CN(C)c1cnc(Nc2cc([C@H]3CC[C@@H](OC(=O)NC4(C)CC4)C3)[nH]n2)cn1 [US20250074895, Compound 32] |
| > 500 | 15 | CC1(NC(=O)O[C@@H]2CC[C@H](c3cc(Nc4ccccn4)n[nH]3)C2)CC1 [US20250074895, Compound 13] |
| > 500 | < 10 | Cc1cc(C#N)cnc1Nc1cc([C@H]2CC[C@@H](OC(=O)NC3(C)CC3)C2)[nH]n1 [US20250074895, Compound 20] |
| < 100 | < 10 | Cc1cc(C#N)cc(Nc2cc([C@H]3CC[C@@H](OC(=O)NC4(C)CC4)C3)[nH]n2)n1 [US20250074895, Compound 15] |
| < 100 | < 10 | CC1(NC(=O)O[C@@H]2CC[C@H](c3cc(Nc4ccnc(C(F)F)n4)n[nH]3)C2)CC1 [US20250074895, Compound 33] |
| 300 | < 10 | Cc1cnc(Nc2cc([C@H]3CC[C@@H](OC(=O)NC4(C)CC4)C3)[nH]n2)cn1 [US20250074895, Compound 27] |
| < 100 | < 10 | CC1(NC(=O)O[C@@H]2CC[C@H](c3cc(Nc4cnc(CO)cn4)n[nH]3)C2)CC1 [US20250074895, Compound 55] |
| > 500 | 15 | CC1(NC(=O)O[C@@H]2CC[C@H](c3cc(Nc4ccc(C#N)nn4)n[nH]3)C2)CC1 [US20250074895, Compound 18] |
| 300 | < 10 | Cc1cnc(C#N)nc1Nc1cc([C@H]2CC[C@@H](OC(=O)NC3(C)CC3)C2)[nH]n1 [US20250074895, Compound 19] |
| > 500 | 15 | Cc1cncnc1Nc1cc([C@H]2CC[C@@H](OC(=O)NC3(C)CC3)C2)[nH]n1 [US20250074895, Compound 40] |
| > 500 | < 10 | COc1cnc(Nc2cc([C@H]3CC[C@@H](OC(=O)NC4(C)CC4)C3)[nH]n2)c(C)n1 [US20250074895, Compound 45] |
| 300 | < 10 | CC1(NC(=O)O[C@@H]2CC[C@H](c3cc(Nc4cnc(C#N)cn4)n[nH]3)C2)CC1 [US20250074895, Compound 1] |
| 300 | < 10 | CC1(NC(=O)O[C@@H]2CC[C@H](c3cc(Nc4cc(C#N)cnn4)n[nH]3)C2)CC1 [US20250074895, Compound 5] |
| > 500 | < 10 | Cc1nc(CO)cnc1Nc1cc([C@H]2CC[C@@H](OC(=O)NC3(C)CC3)C2)[nH]n1 [US20250074895, Compound 47] |
| > 500 | 25 | CC1(NC(=O)O[C@@H]2CC[C@H](c3cc(Nc4nccnn4)n[nH]3)C2)CC1 [US20250074895, Compound 42] |
| < 100 | < 10 | Cc1nc(Nc2cc([C@H]3CC[C@@H](OC(=O)NC4(C)CC4)C3)[nH]n2)cnc1C#N [US20250074895, Compound 9] |
| < 100 | < 10 | CN(C)c1nncc(Nc2cc([C@H]3CC[C@@H](OC(=O)NC4(C)CC4)C3)[nH]n2)n1 [US20250074895, Compound 44] |

| IC50 [1] [nM] | IC50 [2] [nM] | Compound |
| --- | --- | --- |
| < 100 | < 10 | CC1(NC(=O)O[C@@H]2CC[C@H](c3cc(Nc4ccnc(C#N)n4)n[nH]3)C2)CC1 [US20250074895, Compound 3] |
| > 500 | < 10 | Cc1nccnc1Nc1cc([C@H]2CC[C@@H](OC(=O)NC3(C)CC3)C2)[nH]n1 [US20250074895, Compound 6] |
| 300 | < 10 | C[C@H](O)c1cnc(Nc2cc([C@H]3CC[C@@H](OC(=O)NC4(C)CC4)C3)[nH]n2)cn1 [US20250074895, Compound 21] |
| < 100 | < 10 | CC1(NC(=O)O[C@@H]2CC[C@H](c3cc(Nc4cc(C#N)ncn4)n[nH]3)C2)CC1 [US20250074895, Compound 16] |
| < 100 | < 10 | CNc1nncc(Nc2cc([C@H]3CC[C@@H](OC(=O)NC4(C)CC4)C3)[nH]n2)n1 [US20250074895, Compound 23] |
| > 500 | < 10 | Cc1c(C#N)ccnc1Nc1cc([C@H]2CC[C@@H](OC(=O)NC3(C)CC3)C2)[nH]n1 [US20250074895, Compound 14] |
| 300 | < 10 | COc1cncc(Nc2cc([C@H]3CC[C@@H](OC(=O)NC4(C)CC4)C3)[nH]n2)n1 [US20250074895, Compound 24] |
| < 100 | < 10 | C[C@H](O)c1cnc(Nc2cc([C@H]3CC[C@@H](OC(=O)N4CCC4(C)C)C3)[nH]n2)cn1 [US20250074895, Compound 52] |
| < 100 | < 10 | CC1(NC(=O)O[C@@H]2CC[C@H](c3cc(Nc4cncc(C#N)n4)n[nH]3)C2)CC1 [US20250074895, Compound 11] |
| 300 | < 10 | CC1(NC(=O)O[C@@H]2CC[C@H](c3cc(Nc4cnc(C(F)(F)F)cn4)n[nH]3)C2)CC1 [US20250074895, Compound 30] |
| < 100 | < 10 | CC1(NC(=O)O[C@H]2CC[C@@H](c3cc(Nc4cnccn4)n[nH]3)C2)CC1 [US20250074895, Compound 57] |
| 300 | < 10 | CC1(NC(=O)O[C@@H]2CC[C@H](c3cc(Nc4ccnc(CO)n4)n[nH]3)C2)CC1 [US20250074895, Compound 46] |
| 300 | < 10 | CC1(NC(=O)O[C@@H]2CC[C@H](c3cc(Nc4cnccn4)n[nH]3)C2)CC1 [US20250074895, Compound 26] |
| < 100 | < 10 | CC1(NC(=O)O[C@@H]2CC[C@H](c3cc(Nc4cnc(C(F)F)cn4)n[nH]3)C2)CC1 [US20250074895, Compound 36] |
| 300 | < 10 | CC1(NC(=O)O[C@@H]2CC[C@H](c3cc(Nc4cnc(C(C)(C)O)cn4)n[nH]3)C2)CC1 [US20250074895, Compound 17] |
| < 100 | < 10 | CC1(NC(=O)O[C@@H]2CC[C@H](c3cc(Nc4cnc(F)cn4)n[nH]3)C2)CC1 [US20250074895, Compound 31] |
| 300 | < 10 | CC1(NC(=O)O[C@@H]2CC[C@H](c3cc(Nc4ccc(C#N)cn4)n[nH]3)C2)CC1 [US20250074895, Compound 12] |
| 300 | < 10 | CC1(NC(=O)O[C@@H]2CC[C@H](c3cc(Nc4ccncn4)n[nH]3)C2)CC1 [US20250074895, Compound 39] |
| > 500 | 15 | CC1(NC(=O)O[C@@H]2CC[C@H](c3cc(Nc4cccnn4)n[nH]3)C2)CC1 [US20250074895, Compound 38] |
| 300 | < 10 | Cc1nccc(Nc2cc([C@H]3CC[C@@H](OC(=O)NC4(C)CC4)C3)[nH]n2)n1 [US20250074895, Compound 34] |
